Experimental data reported in PubChem BioAssay (NCI).
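GI50: concentration for 50% inhibition of growth. TGI: total growth inhibition.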

What was measured:
Assay in all cases: DTP human tumour cell line panel, 384-well format
786-0 renal = test system: 786-0 renal
A498 renal = test system: A498 renal
A549 NSCLC = test system: A549 NSCLC
ACHN renal = test system: ACHN renal
BT-549 breast = test system: BT-549 breast
CAKI-1 renal = test system: CAKI-1 renal
CCRF-CEM leukemia = test system: CCRF-CEM leukemia
COLO 205 colon = test system: COLO 205 colon
DU-145 prostate = test system: DU-145 prostate
EKVX NSCLC = test system: EKVX NSCLC
HCC-2998 colon = test system: HCC-2998 colon
HCT-116 colon = test system: HCT-116 colon
HCT-15 colon = test system: HCT-15 colon
HL-60(TB) leukemia = test system: HL-60(TB) leukemia
HOP-62 NSCLC = test system: HOP-62 NSCLC
HOP-92 NSCLC = test system: HOP-92 NSCLC
HT29 colon = test system: HT29 colon
IGROV1 ovarian = test system: IGROV1 ovarian
K-562 leukemia = test system: K-562 leukemia
KM12 colon = test system: KM12 colon
LOX IMVI melanoma = test system: LOX IMVI melanoma
M14 melanoma = test system: M14 melanoma
MALME-3M melanoma = test system: MALME-3M melanoma
MCF7 breast = test system: MCF7 breast
MDA-MB-231 breast = test system: MDA-MB-231 breast
MDA-MB-435 melanoma = test system: MDA-MB-435 melanoma
MDA-MB-468 breast = test system: MDA-MB-468 breast
MOLT-4 leukemia = test system: MOLT-4 leukemia
NCI-H226 lung = test system: NCI-H226 lung
NCI-H23 lung = test system: NCI-H23 lung
NCI-H322M lung = test system: NCI-H322M lung
NCI-H460 NSCLC = test system: NCI-H460 NSCLC
NCI-H522 lung = test system: NCI-H522 lung
NCI/ADR-RES ovarian = test system: NCI/ADR-RES ovarian
OVCAR-3 ovarian = test system: OVCAR-3 ovarian
OVCAR-4 ovarian = test system: OVCAR-4 ovarian
OVCAR-5 ovarian = test system: OVCAR-5 ovarian
OVCAR-8 ovarian = test system: OVCAR-8 ovarian
PC-3 prostate = test system: PC-3 prostate
RPMI-8226 leukemia = test system: RPMI-8226 leukemia
RXF 393 renal = test system: RXF 393 renal
SF-268 CNS = test system: SF-268 CNS
SF-295 CNS = test system: SF-295 CNS
SF-539 CNS = test system: SF-539 CNS
SK-MEL-2 melanoma = test system: SK-MEL-2 melanoma
SK-MEL-28 melanoma = test system: SK-MEL-28 melanoma
SK-MEL-5 melanoma = test system: SK-MEL-5 melanoma
SK-OV-3 ovarian = test system: SK-OV-3 ovarian
SN12C renal = test system: SN12C renal
SNB-19 CNS = test system: SNB-19 CNS
SNB-75 CNS = test system: SNB-75 CNS
SR leukemia = test system: SR leukemia
SW-620 colon = test system: SW-620 colon
T-47D breast = test system: T-47D breast
TK-10 renal = test system: TK-10 renal
U251 glioblastoma = test system: U251 glioblastoma
UACC-257 melanoma = test system: UACC-257 melanoma
UACC-62 melanoma = test system: UACC-62 melanoma
UO-31 renal = test system: UO-31 renal

C=CC(=O)N1CC[C@@H](Oc2nc(Nc3ccc(N4CCC(N5CCN(C)CC5)CC4)cc3)c(C(N)=O)nc2CC)C1
GI50 ([…]-0 renal): > 100 µM | TGI (786-0 renal): > 100 µM | GI50 (A498 renal): > 100 µM | TGI (A498 renal): > 100 µM | GI50 (A549 NSCLC): > 100 µM | TGI (A549 NSCLC): > 100 µM | GI50 (ACHN renal): > 100 µM | TGI (ACHN renal): > 100 µM | GI50 (BT-549 breast): > 100 µM | TGI (BT-549 breast): > 100 µM | GI50 (CAKI-1 renal): > 100 µM | TGI (CAKI-1 renal): > 100 µM | GI50 (CCRF-CEM leukemia): > 100 µM | TGI (CCRF-CEM leukemia): > 100 µM | GI50 (COLO 205 colon): > 100 µM | TGI (COLO 205 colon): > 100 µM | GI50 (DU-145 prostate): > 100 µM | TGI (DU-145 prostate): > 100 µM | GI50 (EKVX NSCLC): > 100 µM | TGI (EKVX NSCLC): > 100 µM | GI50 (HCC-2998 colon): > 100 µM | TGI (HCC-2998 colon): > 100 µM | GI50 (HCT-116 colon): > 100 µM | TGI (HCT-116 colon): > 100 µM | GI50 (HCT-15 colon): > 100 µM | TGI (HCT-15 colon): > 100 µM | GI50 (HL-60(TB) leukemia): > 100 µM | TGI (HL-60(TB) leukemia): > 100 µM | GI50 (HOP-62 NSCLC): > 100 µM | TGI (HOP-62 NSCLC): > 100 µM | GI50 (HOP-92 NSCLC): > 100 µM | TGI (HOP-92 NSCLC): > 100 µM | GI50 (HT29 colon): > 100 µM | TGI (HT29 colon): > 100 µM | GI50 (IGROV1 ovarian): > 100 µM | TGI (IGROV1 ovarian): > 100 µM | GI50 (K-562 leukemia): > 88.9 µM | TGI (K-562 leukemia): > 100 µM | GI50 (KM12 colon): > 100 µM | TGI (KM12 colon): > 100 µM | GI50 (LOX IMVI melanoma): > 100 µM | TGI (LOX IMVI melanoma): > 100 µM | GI50 (M14 melanoma): > 100 µM | TGI (M14 melanoma): > 100 µM | GI50 (MALME-3M melanoma): > 100 µM | TGI (MALME-3M melanoma): > 100 µM | GI50 (MCF7 breast): > 100 µM | TGI (MCF7 breast): > 100 µM | GI50 (MDA-MB-231 breast): > 100 µM | TGI (MDA-MB-231 breast): > 100 µM | GI50 (MDA-MB-435 melanoma): > 100 µM | TGI (MDA-MB-435 melanoma): > 100 µM | GI50 (MDA-MB-468 breast): > 100 µM | TGI (MDA-MB-468 breast): > 100 µM | GI50 (MOLT-4 leukemia): > 100 µM | TGI (MOLT-4 leukemia): > 100 µM | GI50 (NCI-H226 lung): > 100 µM | TGI (NCI-H226 lung): > 100 µM | GI50 (NCI-H23 lung): > 100 µM | TGI (NCI-H23 lung): > 100 µM | GI50 (NCI-H322M lung): > 100 µM | TGI (NCI-H322M lung): > 100 µM | GI50 (NCI-H460 NSCLC): > 100 µM | TGI (NCI-H460 NSCLC): > 100 µM | GI50 (NCI-H522 lung): > 100 µM | TGI (NCI-H522 lung): > 100 µM | GI50 (NCI/ADR-RES ovarian): > 100 µM | TGI (NCI/ADR-RES ovarian): > 100 µM | GI50 (OVCAR-3 ovarian): > 100 µM | TGI (OVCAR-3 ovarian): > 100 µM | GI50 (OVCAR-4 ovarian): > 100 µM | TGI (OVCAR-4 ovarian): > 100 µM | GI50 (OVCAR-5 ovarian): > 100 µM | TGI (OVCAR-5 ovarian): > 100 µM | GI50 (OVCAR-8 ovarian): > 100 µM | TGI (OVCAR-8 ovarian): > 100 µM | GI50 (PC-3 prostate): > 100 µM | TGI (PC-3 prostate): > 100 µM | GI50 (RPMI-8226 leukemia): > 100 µM | TGI (RPMI-8226 leukemia): > 100 µM | GI50 (RXF 393 renal): > 100 µM | TGI (RXF 393 renal): > 100 µM | GI50 (SF-268 CNS): > 100 µM | TGI (SF-268 CNS): > 100 µM | GI50 (SF-295 CNS): > 100 µM | TGI (SF-295 CNS): > 100 µM | GI50 (SF-539 CNS): > 100 µM | TGI (SF-539 CNS): > 100 µM | GI50 (SK-MEL-2 melanoma): > 100 µM | TGI (SK-MEL-2 melanoma): > 100 µM | GI50 (SK-MEL-28 melanoma): > 100 µM | TGI (SK-MEL-28 melanoma): > 100 µM | GI50 (SK-MEL-5 melanoma): > 100 µM | TGI (SK-MEL-5 melanoma): > 100 µM | GI50 (SK-OV-3 ovarian): > 100 µM | TGI (SK-OV-3 ovarian): > 100 µM | GI50 (SN12C renal): > 100 µM | TGI (SN12C renal): > 100 µM | GI50 (SNB-19 CNS): > 100 µM | TGI (SNB-19 CNS): > 100 µM | GI50 (SNB-75 CNS): > 100 µM | TGI (SNB-75 CNS): > 100 µM | GI50 (SR leukemia): > 87.9 µM | TGI (SR leukemia): > 100 µM | GI50 (SW-620 colon): > 100 µM | TGI (SW-620 colon): > 100 µM | GI50 (T-47D breast): > 100 µM | TGI (T-47D breast): > 100 µM | GI50 (TK-10 renal): > 100 µM | TGI (TK-10 renal): > 100 µM | GI50 (U251 glioblastoma): > 100 µM | TGI (U251 glioblastoma): > 100 µM | GI50 (UACC-257 melanoma): > 100 µM | TGI (UACC-257 melanoma): > 100 µM | GI50 (UACC-62 melanoma): > 100 µM | TGI (UACC-62 melanoma): > 100 µM | GI50 (UO-31 renal): > 100 µM | TGI (UO-31 renal): > 100 µM
